Measurements: US20240246942A1, “KINASE INHIBITORS FOR THE TREATMENT OF NEURODEGENERATIVE DISEASES” (priority 2020, published 2024)

Experiments:
Assay in all cases: biochemical
[1] = biological target: T1, panel of 374 wild-type kinases (Homo sapiens, UniProt Q96PY6); details: read-out: % Enzyme Activity (relative to DMSO controls), NEK1
T1 construct: purchased Reaction Biology Corporation
T1 sequence (Q96PY6 1-1258): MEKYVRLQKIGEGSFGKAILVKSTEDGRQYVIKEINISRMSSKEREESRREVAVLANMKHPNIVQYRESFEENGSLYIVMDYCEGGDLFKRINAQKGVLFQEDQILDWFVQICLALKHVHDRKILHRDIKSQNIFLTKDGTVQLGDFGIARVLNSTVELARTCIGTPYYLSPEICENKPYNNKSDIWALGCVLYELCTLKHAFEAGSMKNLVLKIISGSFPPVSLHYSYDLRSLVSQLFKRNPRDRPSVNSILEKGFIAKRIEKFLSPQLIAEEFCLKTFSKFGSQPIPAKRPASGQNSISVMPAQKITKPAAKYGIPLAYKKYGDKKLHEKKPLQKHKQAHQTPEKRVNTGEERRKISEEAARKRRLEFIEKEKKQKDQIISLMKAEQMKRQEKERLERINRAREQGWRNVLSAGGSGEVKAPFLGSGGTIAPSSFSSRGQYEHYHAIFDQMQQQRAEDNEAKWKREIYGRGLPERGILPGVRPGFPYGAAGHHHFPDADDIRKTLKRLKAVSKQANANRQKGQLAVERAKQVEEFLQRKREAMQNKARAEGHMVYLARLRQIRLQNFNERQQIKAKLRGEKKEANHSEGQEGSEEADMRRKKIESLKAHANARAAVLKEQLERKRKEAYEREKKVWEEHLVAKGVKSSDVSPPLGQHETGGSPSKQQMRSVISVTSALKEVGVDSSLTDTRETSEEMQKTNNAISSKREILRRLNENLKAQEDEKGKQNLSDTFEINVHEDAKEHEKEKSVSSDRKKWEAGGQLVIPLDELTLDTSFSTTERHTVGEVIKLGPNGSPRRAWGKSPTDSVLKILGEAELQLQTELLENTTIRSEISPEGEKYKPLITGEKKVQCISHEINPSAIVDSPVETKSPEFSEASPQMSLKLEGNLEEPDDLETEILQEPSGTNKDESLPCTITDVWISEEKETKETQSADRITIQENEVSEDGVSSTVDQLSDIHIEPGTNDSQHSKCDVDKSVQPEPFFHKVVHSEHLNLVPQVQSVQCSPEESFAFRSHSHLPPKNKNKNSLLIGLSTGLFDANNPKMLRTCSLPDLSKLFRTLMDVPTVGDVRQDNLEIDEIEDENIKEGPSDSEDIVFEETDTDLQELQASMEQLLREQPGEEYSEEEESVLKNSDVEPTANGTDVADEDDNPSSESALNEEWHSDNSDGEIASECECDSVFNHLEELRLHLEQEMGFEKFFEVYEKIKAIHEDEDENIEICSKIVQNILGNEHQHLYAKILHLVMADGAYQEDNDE

[2] = biological target: T2, panel of 374 wild-type kinases (Homo sapiens, UniProt Q15349); details: read-out: % Enzyme Activity (relative to DMSO controls), kinase RSK3
T2 construct: purchased Reaction Biology Corporation
T2 sequence (Q15349 whole entry): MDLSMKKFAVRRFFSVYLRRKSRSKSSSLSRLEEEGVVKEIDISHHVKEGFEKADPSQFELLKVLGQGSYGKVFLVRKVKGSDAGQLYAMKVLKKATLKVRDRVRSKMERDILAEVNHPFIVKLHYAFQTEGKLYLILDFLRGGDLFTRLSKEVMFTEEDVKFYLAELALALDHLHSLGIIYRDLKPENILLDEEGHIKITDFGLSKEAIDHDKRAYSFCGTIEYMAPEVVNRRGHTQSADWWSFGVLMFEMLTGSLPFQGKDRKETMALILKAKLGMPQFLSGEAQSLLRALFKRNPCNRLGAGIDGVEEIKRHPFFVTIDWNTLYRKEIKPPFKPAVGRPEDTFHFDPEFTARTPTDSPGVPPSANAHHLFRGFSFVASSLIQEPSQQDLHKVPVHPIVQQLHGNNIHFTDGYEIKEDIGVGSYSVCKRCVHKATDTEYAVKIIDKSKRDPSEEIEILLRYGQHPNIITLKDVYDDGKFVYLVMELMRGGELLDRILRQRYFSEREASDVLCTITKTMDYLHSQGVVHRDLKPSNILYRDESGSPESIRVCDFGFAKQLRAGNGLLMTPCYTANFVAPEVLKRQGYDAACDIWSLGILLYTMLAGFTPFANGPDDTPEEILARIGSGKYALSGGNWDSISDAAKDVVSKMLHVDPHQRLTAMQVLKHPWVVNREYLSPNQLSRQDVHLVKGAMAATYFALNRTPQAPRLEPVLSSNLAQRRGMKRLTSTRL

[3] = biological target: T3, panel of 374 wild-type kinases (Homo sapiens, UniProt Q9Y2K2); details: read-out: % Enzyme Activity (relative to DMSO controls), kinase SIK3
T3 construct: purchased Reaction Biology Corporation
T3 sequence (Q9Y2K2 whole entry): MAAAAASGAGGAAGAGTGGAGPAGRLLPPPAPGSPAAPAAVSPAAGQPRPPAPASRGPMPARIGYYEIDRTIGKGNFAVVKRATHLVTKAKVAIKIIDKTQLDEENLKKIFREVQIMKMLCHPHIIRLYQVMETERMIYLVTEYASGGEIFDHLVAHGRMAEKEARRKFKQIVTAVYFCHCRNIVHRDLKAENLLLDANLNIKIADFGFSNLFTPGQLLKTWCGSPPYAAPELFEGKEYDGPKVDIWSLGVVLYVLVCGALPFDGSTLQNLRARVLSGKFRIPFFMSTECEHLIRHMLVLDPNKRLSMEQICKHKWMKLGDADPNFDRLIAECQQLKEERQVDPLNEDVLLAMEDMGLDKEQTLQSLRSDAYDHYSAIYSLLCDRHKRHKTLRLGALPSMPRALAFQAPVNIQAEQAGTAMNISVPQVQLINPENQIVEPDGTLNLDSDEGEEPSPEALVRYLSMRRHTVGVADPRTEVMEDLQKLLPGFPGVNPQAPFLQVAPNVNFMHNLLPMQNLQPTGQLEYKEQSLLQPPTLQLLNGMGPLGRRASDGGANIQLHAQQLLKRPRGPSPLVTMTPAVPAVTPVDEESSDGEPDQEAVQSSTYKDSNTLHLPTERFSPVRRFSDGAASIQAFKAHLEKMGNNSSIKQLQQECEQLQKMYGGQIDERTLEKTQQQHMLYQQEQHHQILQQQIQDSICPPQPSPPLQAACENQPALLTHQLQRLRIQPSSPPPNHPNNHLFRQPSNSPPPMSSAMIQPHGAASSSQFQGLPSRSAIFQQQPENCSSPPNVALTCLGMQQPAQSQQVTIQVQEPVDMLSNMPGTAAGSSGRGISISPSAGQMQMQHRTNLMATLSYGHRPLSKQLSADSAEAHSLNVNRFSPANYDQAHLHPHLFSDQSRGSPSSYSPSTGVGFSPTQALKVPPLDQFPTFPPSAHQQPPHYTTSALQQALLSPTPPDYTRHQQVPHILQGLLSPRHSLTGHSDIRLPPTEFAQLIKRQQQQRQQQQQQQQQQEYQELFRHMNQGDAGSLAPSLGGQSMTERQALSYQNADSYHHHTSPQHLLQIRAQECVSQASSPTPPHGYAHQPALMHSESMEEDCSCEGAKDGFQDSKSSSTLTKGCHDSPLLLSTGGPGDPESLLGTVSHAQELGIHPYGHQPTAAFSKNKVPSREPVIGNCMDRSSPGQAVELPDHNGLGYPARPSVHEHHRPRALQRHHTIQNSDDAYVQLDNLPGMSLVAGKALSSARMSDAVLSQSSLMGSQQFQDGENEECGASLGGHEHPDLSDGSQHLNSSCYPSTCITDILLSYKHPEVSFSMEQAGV

[4] = biological target: T4, panel of 374 wild-type kinases (Homo sapiens, UniProt Q8WXR4); details: read-out: % Enzyme Activity (relative to DMSO controls), MYO3b
T4 construct: purchased Reaction Biology Corporation
T4 sequence (Q8WXR4 1-1341): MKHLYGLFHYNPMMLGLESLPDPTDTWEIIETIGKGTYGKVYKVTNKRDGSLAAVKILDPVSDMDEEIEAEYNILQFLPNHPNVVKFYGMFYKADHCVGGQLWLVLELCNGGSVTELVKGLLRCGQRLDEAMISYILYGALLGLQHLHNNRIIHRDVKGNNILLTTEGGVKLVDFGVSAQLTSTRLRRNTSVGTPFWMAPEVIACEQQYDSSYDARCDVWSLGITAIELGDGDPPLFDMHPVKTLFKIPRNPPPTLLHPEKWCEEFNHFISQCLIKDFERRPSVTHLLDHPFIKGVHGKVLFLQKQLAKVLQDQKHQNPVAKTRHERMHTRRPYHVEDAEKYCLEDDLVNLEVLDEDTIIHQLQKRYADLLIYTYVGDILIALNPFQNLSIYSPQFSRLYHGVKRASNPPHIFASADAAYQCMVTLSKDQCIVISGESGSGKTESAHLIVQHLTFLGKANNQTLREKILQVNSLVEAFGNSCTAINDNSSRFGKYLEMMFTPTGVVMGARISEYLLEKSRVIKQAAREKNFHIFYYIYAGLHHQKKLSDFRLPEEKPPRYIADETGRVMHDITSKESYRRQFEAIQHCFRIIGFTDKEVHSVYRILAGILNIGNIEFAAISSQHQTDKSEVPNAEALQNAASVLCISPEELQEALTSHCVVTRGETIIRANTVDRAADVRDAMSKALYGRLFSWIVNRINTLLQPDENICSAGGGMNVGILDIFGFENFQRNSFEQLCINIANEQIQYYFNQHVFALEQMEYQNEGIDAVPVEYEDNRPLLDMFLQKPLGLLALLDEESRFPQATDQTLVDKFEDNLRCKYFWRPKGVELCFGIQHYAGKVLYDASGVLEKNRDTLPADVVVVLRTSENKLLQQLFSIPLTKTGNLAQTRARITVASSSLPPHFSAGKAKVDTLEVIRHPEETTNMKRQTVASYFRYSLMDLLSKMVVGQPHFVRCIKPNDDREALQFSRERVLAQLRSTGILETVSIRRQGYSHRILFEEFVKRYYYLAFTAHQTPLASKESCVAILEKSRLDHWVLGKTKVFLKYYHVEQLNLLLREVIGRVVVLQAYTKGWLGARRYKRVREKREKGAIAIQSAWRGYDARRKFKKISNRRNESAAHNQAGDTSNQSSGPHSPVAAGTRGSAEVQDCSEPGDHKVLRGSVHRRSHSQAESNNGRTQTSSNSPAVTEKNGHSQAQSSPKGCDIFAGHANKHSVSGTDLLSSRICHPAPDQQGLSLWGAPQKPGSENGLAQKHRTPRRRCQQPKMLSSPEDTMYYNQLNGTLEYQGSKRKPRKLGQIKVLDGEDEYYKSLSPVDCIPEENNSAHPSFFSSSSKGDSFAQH

[5] = biological target: T5, panel of 374 wild-type kinases (Homo sapiens, UniProt Q5TCY1); details: kinase TTBK1, read-out: % Enzyme Activity (relative to DMSO controls)
T5 construct: purchased Reaction Biology Corporation
T5 sequence (Q5TCY1 whole entry): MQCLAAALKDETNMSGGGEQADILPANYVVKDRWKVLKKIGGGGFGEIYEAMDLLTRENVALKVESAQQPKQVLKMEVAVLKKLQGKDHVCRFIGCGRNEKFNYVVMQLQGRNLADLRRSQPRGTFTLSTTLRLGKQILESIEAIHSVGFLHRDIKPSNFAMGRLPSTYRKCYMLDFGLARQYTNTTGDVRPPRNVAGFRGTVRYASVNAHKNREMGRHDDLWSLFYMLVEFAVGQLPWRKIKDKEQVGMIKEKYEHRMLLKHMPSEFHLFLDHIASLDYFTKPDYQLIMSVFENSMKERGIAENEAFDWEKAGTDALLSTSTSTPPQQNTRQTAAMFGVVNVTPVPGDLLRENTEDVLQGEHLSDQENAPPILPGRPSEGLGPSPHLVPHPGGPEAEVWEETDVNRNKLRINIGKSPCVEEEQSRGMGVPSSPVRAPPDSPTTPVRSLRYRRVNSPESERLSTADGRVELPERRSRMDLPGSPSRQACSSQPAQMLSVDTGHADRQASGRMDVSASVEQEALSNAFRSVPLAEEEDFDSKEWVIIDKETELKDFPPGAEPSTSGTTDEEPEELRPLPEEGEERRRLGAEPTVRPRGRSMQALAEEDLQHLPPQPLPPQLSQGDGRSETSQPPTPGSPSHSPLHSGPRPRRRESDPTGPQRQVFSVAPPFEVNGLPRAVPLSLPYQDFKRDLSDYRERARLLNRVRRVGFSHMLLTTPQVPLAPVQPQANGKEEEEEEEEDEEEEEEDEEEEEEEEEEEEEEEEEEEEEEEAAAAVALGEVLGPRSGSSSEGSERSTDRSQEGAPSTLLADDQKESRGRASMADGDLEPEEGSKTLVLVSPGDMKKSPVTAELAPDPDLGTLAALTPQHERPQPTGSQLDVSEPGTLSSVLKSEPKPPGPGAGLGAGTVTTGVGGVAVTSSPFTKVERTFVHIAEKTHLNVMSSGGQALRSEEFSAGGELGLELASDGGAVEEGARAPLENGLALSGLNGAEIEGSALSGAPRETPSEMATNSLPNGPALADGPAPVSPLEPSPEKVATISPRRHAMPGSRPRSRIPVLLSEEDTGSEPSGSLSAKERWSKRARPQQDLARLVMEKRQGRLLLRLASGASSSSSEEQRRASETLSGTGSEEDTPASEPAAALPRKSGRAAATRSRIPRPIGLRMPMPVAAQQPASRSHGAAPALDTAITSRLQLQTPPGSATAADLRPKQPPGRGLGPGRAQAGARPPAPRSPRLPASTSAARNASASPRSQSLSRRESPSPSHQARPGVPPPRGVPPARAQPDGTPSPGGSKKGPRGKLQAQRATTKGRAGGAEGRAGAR

[6] = biological target: T6, panel of 374 wild-type kinases (Homo sapiens, UniProt Q9NYL2); details: read-out: % Enzyme Activity (relative to DMSO controls), kinase ZAK/MLTK
T6 construct: purchased Reaction Biology Corporation
T6 sequence (Q9NYL2 whole entry): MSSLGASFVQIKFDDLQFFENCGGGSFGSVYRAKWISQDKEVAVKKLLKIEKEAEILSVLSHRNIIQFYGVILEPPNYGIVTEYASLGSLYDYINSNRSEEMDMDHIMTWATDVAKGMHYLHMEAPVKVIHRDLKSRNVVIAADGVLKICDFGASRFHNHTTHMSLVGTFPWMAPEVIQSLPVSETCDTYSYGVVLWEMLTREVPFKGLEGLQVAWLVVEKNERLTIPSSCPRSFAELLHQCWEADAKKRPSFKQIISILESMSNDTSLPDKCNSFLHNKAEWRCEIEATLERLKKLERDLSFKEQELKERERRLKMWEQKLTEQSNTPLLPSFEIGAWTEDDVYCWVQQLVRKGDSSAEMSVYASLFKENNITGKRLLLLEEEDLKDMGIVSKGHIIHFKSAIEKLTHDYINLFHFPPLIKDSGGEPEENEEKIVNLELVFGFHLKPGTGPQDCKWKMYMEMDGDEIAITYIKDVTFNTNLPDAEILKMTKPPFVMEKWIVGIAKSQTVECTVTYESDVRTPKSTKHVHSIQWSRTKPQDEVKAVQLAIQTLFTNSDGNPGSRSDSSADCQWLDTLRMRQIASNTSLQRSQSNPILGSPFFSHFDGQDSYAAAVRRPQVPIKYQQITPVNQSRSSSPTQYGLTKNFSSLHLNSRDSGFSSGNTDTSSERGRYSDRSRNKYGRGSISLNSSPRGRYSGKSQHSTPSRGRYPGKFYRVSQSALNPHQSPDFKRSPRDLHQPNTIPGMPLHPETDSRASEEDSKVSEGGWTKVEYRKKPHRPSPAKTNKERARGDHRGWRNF

SMILES	remaining activity at 5 µM [1]	remaining activity at 5 µM [2]	remaining activity at 5 µM [3]	remaining activity at 5 µM [4]	remaining activity at 5 µM [5]	remaining activity at 5 µM [6]	remaining activity at 10 µM ([1]; 10 uM)	remaining activity at 10 µM ([2]; 10 uM)	remaining activity at 10 µM ([3]; 10 uM)	remaining activity at 10 µM ([4]; 10 uM)	remaining activity at 10 µM ([5]; 10 uM)	remaining activity at 10 µM ([6]; 10 uM)
O=C(Nc1cnn(-c2csc(C(=O)NC3COC3)c2)c1)Nc1ccccc1Cl [Compound 17, 4-(4-(3-(2-chlorophenyl)ureido)-1H-pyrazol-1-yl)-N-(oxetan-3-yl)thiophene-2-carboxamide]	115%	103%	92.4%	128%	97.2%	101%	–	–	–	–	–	–
O=C(Nc1cnn(-c2csc(C(=O)NC3COC3)c2)c1)Nc1c(F)cccc1Cl [Compound 25, 4-(4-(3-(2-chloro-6-fluorophenyl)ureido)-1H-pyrazol-1-yl)-N-(oxetan-3-yl)thiophene-2-carboxamide]	77.2%	90.1%	94.5%	101%	82.3%	90.4%	–	–	–	–	–	–
Cc1sc(C(=O)NC2COC2)cc1-n1cc(NC(=O)Nc2c(F)cccc2Cl)cn1 [Compound 27, 4-(4-(3-(2-chloro-6-fluorophenyl)ureido)-1H-pyrazol-1-yl)-5-methyl-N-(oxetan-3-yl)thiophene-2-carboxamide]	–	–	–	–	–	–	90.4%	100%	86.9%	78.7%	113%	89.9%
